The results in this text go back to patent US20240181022A1, “AMURINS LYSINS, AND LYSIN-ANTIMICROBIAL PEPTIDE (AMP) CONSTRUCTS ACTIVE AGAINST GRAM-NEGATIVE BACTERIA” (priority 2021, published 2024).

Molecules are shown by their SMILES. Values after ≈ are worked out from the molar mass of the structure shown. Read-outs that look alike come from different tables or passages of the source.

One assay concerns A. dolens. As to the kind of experiment: MIC by broth microdilution against A. dolens. It is filed as cell-based, Achromobacter dolens. Conditions: A. dolens isolates. How it is done: (§1) MIC values were determined using a modification of the standard broth microdilution reference method defined by the Clinical and Laboratory Standards Institute (CLSI), CLSL. 2015. Methods for Dilution Antimicrobial Susceptibility Tests for Bacteria That Grow Aerobically; Approved Standard-10th Edition. Clinical and Laboratory Standards Institute, Wayne, PA. The modification was based on the replacement of Mueller Hinton Broth with either CAA media (with and without NaCl) or CAA supplemented with 2.5% human serum. MIC is the minimum concentration of peptide sufficient to suppress at least 80% of the bacterial growth compared to control.
(§2) Based on these nine most prevalent strains, direct lytic agents, including GN370, AM1, AM2, and AM3, were evaluated against various isolates from each of the 9 strains. MICs and MBECs (Example 3) were determined, and a sputum inhibition test was conducted, as described below in Example 5.
(§3) The MICs for were determined as described below using the broth microdilution method for meropenem, GN370, AM1, AM2, and AM3. The results are shown below in Tables 8-12.
(In broth dilution the organism is exposed to a series of concentrations in liquid medium.)

Another assay has as its system A. ruhlandii. As to the kind of experiment: MIC by broth microdilution against A. ruhlandii. Particulars: A. ruhlandii isolates. It counts as cell-based, Achromobacter ruhlandii. The protocol:
as §1, §2, §3

The test system of a further assay is B. gladioli. The experiment in a line: MIC by broth microdilution against B. gladioli. It is filed as cell-based, Burkholderia gladioli. Particulars: B. gladioli isolates. The protocol:
as §1, §2, §3

For another assay, the system named is P. apista. As to the kind of experiment: MIC by broth microdilution against P. apista. It is filed as cell-based, Pandoraea apista. Particulars: P. apista isolates. The protocol:
as §1, §2, §3

The next assay concerns B. multivorans. As to the kind of experiment: MIC by broth microdilution against B. multivorans. It counts as cell-based, Burkholderia multivorans. Conditions: B. multivorans isolates. The protocol:
as §1, §2, §3

For the compound `C[C@@H](O)[C@H]1C(=O)N2C(C(=O)O)=C(S[C@@H]3CN[C@H](C(=O)N(C)C)C3)[C@H](C)[C@H]12` [meropenem, reference compound], the MIC50 (usually an inhibitory concentration at the 50% level, which refers to growth in some studies and to a panel of isolates in others) against A. dolens is 2 µg/mL (≈ 5.22 µM); against A. ruhlandii it was 16 µg/mL (≈ 41.7 µM); with B. gladioli, 1 µg/mL (≈ 2.61 µM); with P. aeruginosa (P. aeruginosa isolates), 4 µg/mL (≈ 10.4 µM); in the assay with P. apista, greater than 32 µg/mL; with B. multivorans it was 8 µg/mL (≈ 20.9 µM). For the same compound, the MIC90 (as a rule, the lowest concentration that inhibits either 90% of growth or 90% of the strains tested, depending on the study) with A. dolens was greater than 32 µg/mL; against A. ruhlandii it was greater than 32 µg/mL; in the assay on B. gladioli, 2 µg/mL (≈ 5.22 µM); with P. aeruginosa (P. aeruginosa isolates), 32 µg/mL (≈ 83.4 µM); in the assay with P. apista, greater than 32 µg/mL; with B. multivorans, 32 µg/mL (≈ 83.4 µM). In addition, the MIC – broadly, the lowest concentration that inhibits growth of the organism – in the assay with P. aeruginosa (P. aeruginosa test organism of the sputum time-kill assay) is “(MIC = 0.125)”; in the assay on P. aeruginosa ([…], before serial passage) it was 0.5 µg/mL (≈ 1.3 µM). The same compound showed an MIC Range against P. apista greater than 32 µg/mL.
